In patent publication US8993480B2, “Active ingredient combinations with insecticidal properties” (Bayer CropScience AG, priority 2006, dated 2015):

Experiments:
Format in all cases: in vivo
[1] = test system: Myzus persicae; experiment: Myzus persicae test (cabbage leaves, dip); details: cabbage leaves dipped; for Kill rate in % after 1 d, found: 4 ppm
Text: (§1) The expected activity for a given combination of two active compounds can be calculated according to S. R. Colby, Weeds 15 (1967), 20-22) as follows:
(§2) If • X is the kill rate, expressed in % of the untreated control, when employing active compound A at an application rate of m g/ha or in a concentration of m ppm, • Y is the kill rate, expressed in % of the untreated control, when employing active compound B at an application rate of n g/ha or in a concentration of n ppm and • E is the kill rate, expressed in % of the untreated control, when employing active compounds A and B at application rates of m and n g/ha or in a concentration of m and n ppm, then
(§3) If the actual insecticidal kill rate is higher than the calculated one, the kill rates of the combination are superadditive, i.e. a synergistic effect is present. In this case, the kill rate that is actually observed has to be higher than the value, calculated using the formula above, for the expected kill rate (E).
(§4) To produce a suitable preparation of active compound, 1 part by weight of active compound is mixed with the stated amounts of solvent and emulsifier, and the concentrate is diluted with emulsifier-containing water to the desired concentration.
Cabbage leaves (Brassica oleracea) which are heavily infested by the green peach aphid (Myzus persicae) are treated by being dipped into the preparation of active compound of the desired concentration.
After the desired period of time, the kill in % is determined. 100% means that all aphids have been killed; 0% means that none of the aphids have been killed. The determined kill rates are entered into Colby's formula (see page 71).

[2] = test system: Aphis gossypii; experiment: Aphis gossypii test (cotton leaves, dip); details: cotton leaves dipped
Text: as §1, §2, §3, §4
Cotton leaves (Gossypium hirsutum) heavily infested by the cotton aphid (Aphis gossypii) are treated by being dipped into the preparation of active compound of the desired concentration.
After the desired period of time, the kill in % is determined 100% means that all aphids have been killed; 0% means that none of the aphids have been killed. The determined kill rates are entered into Colby's formula (see page 71).

[3] = test system: Tetranychus urticae; experiment: Tetranychus urticae test (OP-resistent, dip application); details: bush beans dipped
Text: as §1, §2, §3
To produce a suitable preparation of active compound, 1 part by weight of active compound is mixed with the stated amounts of solvent and emulsifier, and the concentrate is diluted with water to the desired concentrations. […]
After the desired period of time, the kill in % is determined. […]

SMILES: Cc1nn(C)c(/C(OC(=O)C(C)(C)C)=C(\C#N)c2ccc(C(C)(C)C)cc2)c1C [cyenopyrafen]
- Kill rate in % after 1 d, found [1]: 0%

SMILES: CNC(=O)c1cc(C#N)cc(C)c1NC(=O)c1cc(Br)nn1-c1ncccc1Cl [compound (5)]
- Kill rate in % after 6 d, found ([1]; 0.16 ppm): 5%
- Kill rate in % after 1 d, found [1]: 10%
- Kill rate in % after 6 d, found ([2]; 0.8 ppm): 45%
- Kill rate in % after 7 d, found ([3]; 0.16 ppm): 0%

SMILES: COCCOC(=O)C(C#N)(C(=O)c1ccccc1C(F)(F)F)c1ccc(C(C)(C)C)cc1 (stereo not drawn) [cyflumetofen]
- Kill rate in % after 6 d, found ([2]; 0.16 ppm): 0%

SMILES: CCOC(=O)OC1=C(c2cc(C)ccc2C)C(=O)N[C@]12CC[C@@H](OC)CC2 [spirotetramat]
- Kill rate in % after 6 d, found ([1]; 0.8 ppm): 10%
- Kill rate in % after 6 d, found ([2]; 4 ppm): 15%
- Kill rate in % after 7 d, found ([3]; 0.8 ppm): 25%
